Measured values reported in ChEMBL document CHEMBL1201862, “PubChem BioAssay data set” (2004).
Calls of active or inactive are those of the source.

Columns and labels:
[1] = molecular target: T1, Exodeoxyribonuclease V (Escherichia coli (strain K12), UniProt P04993+P07648+P08394); test: RecBCD inhibition via phage-restricted bacterial growth – absorbance, V66 E. coli, mutant T4 phage, counter-screen for AddAB inhibitor project, dose response (AID 492957); format: functional, cell-based, Escherichia coli str. K-12 substr. MG1655
T1 sequence (P04993 whole entry): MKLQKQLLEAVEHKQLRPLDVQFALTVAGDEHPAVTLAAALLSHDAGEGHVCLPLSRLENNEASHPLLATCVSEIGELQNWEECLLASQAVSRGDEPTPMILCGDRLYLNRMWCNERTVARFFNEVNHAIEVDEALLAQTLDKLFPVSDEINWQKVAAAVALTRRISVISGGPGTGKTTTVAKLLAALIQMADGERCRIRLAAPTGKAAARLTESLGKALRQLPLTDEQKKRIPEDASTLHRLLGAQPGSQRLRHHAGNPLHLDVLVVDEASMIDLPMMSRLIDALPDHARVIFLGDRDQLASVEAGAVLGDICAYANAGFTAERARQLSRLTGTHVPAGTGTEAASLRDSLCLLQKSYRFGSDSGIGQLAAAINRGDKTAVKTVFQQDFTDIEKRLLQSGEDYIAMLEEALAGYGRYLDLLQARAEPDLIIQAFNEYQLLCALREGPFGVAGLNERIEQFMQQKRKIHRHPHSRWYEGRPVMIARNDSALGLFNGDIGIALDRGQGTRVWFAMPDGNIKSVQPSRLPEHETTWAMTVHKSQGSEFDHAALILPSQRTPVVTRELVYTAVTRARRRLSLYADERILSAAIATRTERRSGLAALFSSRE
T1 sequence (P07648 whole entry): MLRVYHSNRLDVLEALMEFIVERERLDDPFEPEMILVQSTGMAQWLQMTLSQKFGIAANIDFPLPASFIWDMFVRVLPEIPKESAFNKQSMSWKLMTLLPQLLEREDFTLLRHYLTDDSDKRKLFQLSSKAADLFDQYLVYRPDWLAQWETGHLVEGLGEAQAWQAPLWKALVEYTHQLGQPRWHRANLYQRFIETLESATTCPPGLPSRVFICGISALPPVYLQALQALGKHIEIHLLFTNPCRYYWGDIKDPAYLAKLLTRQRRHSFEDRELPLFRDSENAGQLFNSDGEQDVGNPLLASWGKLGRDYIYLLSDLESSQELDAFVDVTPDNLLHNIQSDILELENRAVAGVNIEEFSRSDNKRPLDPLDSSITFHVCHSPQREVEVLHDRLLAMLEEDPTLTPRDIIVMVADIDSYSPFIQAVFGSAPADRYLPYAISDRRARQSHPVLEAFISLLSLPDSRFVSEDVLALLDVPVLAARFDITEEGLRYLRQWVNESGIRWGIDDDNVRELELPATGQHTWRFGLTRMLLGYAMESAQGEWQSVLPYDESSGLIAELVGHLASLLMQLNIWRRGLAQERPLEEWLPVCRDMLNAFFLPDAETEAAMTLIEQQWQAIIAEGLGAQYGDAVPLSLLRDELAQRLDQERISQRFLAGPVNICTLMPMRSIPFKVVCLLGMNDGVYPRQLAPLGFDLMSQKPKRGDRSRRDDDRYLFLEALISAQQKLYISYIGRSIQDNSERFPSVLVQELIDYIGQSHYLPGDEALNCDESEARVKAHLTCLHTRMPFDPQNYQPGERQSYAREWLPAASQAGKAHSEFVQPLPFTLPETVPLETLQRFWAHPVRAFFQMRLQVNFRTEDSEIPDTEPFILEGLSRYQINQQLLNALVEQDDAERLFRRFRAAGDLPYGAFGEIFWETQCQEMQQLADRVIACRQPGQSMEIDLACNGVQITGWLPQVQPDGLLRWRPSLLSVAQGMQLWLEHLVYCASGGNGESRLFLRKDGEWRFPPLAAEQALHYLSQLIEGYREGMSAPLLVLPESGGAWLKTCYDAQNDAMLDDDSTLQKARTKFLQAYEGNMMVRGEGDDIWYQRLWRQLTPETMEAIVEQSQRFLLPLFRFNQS
T1 sequence (P08394 whole entry): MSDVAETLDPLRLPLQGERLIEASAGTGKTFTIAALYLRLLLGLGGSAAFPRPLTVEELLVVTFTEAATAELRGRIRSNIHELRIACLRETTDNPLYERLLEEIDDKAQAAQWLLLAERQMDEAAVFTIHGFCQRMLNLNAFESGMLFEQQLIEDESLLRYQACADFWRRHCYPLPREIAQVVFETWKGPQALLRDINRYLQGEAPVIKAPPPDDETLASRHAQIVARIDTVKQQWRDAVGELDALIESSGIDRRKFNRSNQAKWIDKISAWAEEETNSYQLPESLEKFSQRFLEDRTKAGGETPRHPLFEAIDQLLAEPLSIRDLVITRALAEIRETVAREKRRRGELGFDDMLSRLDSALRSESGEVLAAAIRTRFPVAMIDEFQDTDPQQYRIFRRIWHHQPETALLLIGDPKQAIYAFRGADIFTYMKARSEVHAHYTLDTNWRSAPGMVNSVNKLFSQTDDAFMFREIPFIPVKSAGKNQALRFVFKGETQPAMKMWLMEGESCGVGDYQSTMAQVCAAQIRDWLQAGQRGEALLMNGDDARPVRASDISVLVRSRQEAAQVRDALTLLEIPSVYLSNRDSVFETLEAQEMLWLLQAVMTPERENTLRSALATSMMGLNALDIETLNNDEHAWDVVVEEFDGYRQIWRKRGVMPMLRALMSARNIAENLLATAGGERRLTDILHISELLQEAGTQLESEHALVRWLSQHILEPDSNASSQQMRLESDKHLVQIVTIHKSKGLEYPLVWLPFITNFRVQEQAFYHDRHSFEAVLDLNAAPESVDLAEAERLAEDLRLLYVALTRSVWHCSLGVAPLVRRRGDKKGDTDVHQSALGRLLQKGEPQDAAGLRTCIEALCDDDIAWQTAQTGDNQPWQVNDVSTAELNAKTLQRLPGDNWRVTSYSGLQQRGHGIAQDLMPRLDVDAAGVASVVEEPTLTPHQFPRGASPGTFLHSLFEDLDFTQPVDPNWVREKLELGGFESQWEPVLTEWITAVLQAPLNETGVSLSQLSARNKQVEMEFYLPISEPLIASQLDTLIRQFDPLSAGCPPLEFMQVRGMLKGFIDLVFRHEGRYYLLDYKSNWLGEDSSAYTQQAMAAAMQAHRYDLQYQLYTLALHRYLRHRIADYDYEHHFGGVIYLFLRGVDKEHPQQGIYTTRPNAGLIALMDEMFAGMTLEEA

[2] = molecular target: 5'-AMP-activated protein kinase catalytic subunit alpha-1 (Homo sapiens, UniProt Q13131); format: functional
[3] = molecular target: Ribosomal protein S6 kinase alpha-5 (Homo sapiens, UniProt O75582); format: functional
[4] = molecular target: cGMP-dependent protein kinase 1 (Homo sapiens, UniProt Q13976); format: functional;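 also: value from a kinome panel screen with PRKG1 as the panel member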
[5] = molecular target: Cyclin-dependent kinase 1 (Homo sapiens, UniProt P06493); format: functional;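 also: Kinome-wide panel profiling, with the target listed as panel member CDC2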
Chain of Cyclin-dependent kinase 1 (P06493 whole entry): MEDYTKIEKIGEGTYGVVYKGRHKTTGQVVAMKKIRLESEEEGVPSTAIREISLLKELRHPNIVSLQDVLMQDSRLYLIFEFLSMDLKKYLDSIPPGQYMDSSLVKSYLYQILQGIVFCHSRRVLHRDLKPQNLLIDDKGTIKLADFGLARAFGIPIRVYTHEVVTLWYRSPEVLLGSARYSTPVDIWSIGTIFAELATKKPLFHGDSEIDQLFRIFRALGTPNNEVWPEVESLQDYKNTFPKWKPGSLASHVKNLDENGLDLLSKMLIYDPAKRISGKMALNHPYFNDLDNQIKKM

Chain of 5'-AMP-activated protein kinase catalytic subunit alpha-1 (Q13131 whole entry): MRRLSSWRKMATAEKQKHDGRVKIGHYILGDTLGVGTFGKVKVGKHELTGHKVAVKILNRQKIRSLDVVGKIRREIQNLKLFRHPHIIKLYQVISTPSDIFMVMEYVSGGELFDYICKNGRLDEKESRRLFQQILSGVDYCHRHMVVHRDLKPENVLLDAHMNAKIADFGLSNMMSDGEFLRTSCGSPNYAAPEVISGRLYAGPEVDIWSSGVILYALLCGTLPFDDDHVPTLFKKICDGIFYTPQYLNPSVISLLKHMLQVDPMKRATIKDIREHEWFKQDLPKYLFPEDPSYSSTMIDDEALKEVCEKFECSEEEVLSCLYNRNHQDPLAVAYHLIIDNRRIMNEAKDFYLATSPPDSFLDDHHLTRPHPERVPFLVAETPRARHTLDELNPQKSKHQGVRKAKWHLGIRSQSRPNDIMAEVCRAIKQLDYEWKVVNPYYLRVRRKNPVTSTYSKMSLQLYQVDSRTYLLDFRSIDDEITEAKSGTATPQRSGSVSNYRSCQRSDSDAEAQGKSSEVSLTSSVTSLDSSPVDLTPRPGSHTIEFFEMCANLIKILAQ
Chain of cGMP-dependent protein kinase 1 (Q13976 whole entry): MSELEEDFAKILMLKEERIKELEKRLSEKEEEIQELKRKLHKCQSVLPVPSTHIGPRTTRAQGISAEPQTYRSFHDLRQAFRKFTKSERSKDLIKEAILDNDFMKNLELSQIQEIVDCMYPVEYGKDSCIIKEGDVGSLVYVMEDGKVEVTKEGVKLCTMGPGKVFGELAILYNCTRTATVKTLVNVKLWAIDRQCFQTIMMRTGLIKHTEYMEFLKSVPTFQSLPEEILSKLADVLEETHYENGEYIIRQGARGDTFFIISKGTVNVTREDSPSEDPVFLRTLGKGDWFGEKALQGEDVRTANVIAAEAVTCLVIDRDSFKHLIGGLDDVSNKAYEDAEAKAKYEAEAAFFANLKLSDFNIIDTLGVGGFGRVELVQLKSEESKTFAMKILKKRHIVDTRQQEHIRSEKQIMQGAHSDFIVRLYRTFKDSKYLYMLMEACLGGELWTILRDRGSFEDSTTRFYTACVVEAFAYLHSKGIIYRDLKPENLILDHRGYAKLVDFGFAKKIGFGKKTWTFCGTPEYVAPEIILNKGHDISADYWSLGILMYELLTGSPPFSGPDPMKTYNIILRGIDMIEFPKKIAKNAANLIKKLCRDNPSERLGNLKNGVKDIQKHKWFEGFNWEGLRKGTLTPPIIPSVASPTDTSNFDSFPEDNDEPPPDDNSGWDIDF
Chain of Ribosomal protein S6 kinase alpha-5 (O75582 whole entry): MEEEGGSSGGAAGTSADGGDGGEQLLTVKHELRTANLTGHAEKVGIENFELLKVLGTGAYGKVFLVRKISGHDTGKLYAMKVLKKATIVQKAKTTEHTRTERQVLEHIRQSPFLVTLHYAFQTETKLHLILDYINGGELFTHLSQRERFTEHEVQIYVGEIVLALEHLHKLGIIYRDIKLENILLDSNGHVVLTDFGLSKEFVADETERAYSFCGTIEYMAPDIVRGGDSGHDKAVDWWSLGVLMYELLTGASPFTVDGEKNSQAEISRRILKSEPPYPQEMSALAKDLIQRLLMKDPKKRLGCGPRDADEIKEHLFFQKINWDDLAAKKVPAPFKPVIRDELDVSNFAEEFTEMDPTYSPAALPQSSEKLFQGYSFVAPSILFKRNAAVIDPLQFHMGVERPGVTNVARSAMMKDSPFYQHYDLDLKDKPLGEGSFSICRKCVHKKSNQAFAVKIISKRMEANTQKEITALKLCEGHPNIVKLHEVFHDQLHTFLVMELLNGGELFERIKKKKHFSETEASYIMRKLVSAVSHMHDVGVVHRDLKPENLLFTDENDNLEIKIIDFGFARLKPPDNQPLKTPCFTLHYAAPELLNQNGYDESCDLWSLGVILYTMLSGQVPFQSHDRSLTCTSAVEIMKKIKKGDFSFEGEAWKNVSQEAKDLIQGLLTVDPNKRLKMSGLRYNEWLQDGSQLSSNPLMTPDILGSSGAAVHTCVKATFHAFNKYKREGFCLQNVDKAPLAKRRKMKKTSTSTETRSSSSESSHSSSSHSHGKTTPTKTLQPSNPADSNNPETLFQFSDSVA

Row | Ki [2] | Ki [3] | Ki [4] | Ki [5] | Compound | IC50 [1]
1 |  |  |  |  | COc1ccc(-c2nnc(NC(=O)c3ccc(F)cc3)o2)cc1 | > 118000 nM (inactive)
2 | > 1580 nM (inactive) | 63.1 nM (active) | 158 nM (active) | > 7940 nM (inactive) | CCn1c(-c2nonc2N)nc2cnc(Oc3cccc(NC(=O)c4ccc(OCCN5CCOCC5)cc4)c3)cc21 [GSK-269962A] | 
